Columns and labels:
[1] = target: T1, HIV-1 RT-associated RNase H function (Human immunodeficiency virus type 1 group M subtype B, UniProt P04585); experiment: HIV-1 DNA polymerase-independent RNase H activity determination (wt RT); format: biochemical; details: for remaining activity at 100 µM: in the presence of 100 µM of the compound, read-out: Percentage of residual enzyme activity (RNase H); for IC50: concentration required to reduce the enzyme activity by 50%, read-out: RnaseH IC50
T1 construct: The 1:1 ration between the p66/p51 subunits was also verified; His6; made in house; host or cells: E. coli strain M15
Procedure: (§1) HIV-1 RT group M subtype B. Heterodimeric RT was expressed essentially as previously described. Briefly, E. coli strain M15 containing the p6HRT-prot vector was grown to an optical density at 600 nm of 0.7 and induced with 1.7 mM isopropyl β-D-1-thiogalactopyranoside (IPTG) for 4 h. Protein purification was carried out with a BioLogic LP system (Biorad), using a combination of immobilised metal affinity and ion exchange chromatography. Cell pellets were resuspended in lysis buffer (50 mM sodium phosphate buffer pH 7.8, containing 0.5 mg/mL lysozyme), incubated on ice for 20 min, and after adding NaCl to a final concentration of 0.3 M, were sonicated and centrifuged at […] for 1 h. The supernatant was loaded onto a Ni^2+-NTA-Sepharose column pre-equilibrated with loading buffer (50 mM sodium phosphate buffer pH 7.8, containing 0.3 M NaCl, 10% glycerol, and 10 mM imidazole) and washed thoroughly with wash buffer (50 mM sodium phosphate buffer pH 6.0, containing 0.3 M NaCl, 10% glycerol, and 80 mM imidazole). RT was eluted with an imidazole gradient in wash buffer (0–0.5 M). Fractions were collected, protein purity was checked by SDS-PAGE and found to be higher than 90%. The 1:1 ration between the p66/p51 subunits was also verified. Enzyme-containing fractions were pooled and diluted 1:1 with 50 mM sodium phosphate buffer pH 7.0, containing 10% glycerol; and then loaded into a Hi-trap heparin HP GE (Healthcare Lifescience) pre-equilibrated with 10 column volumes of loading buffer (50 mM sodium phosphate buffer pH 7.0, containing 10% glycerol and 150 mM NaCl). The column was then washed with loading buffer and the RT was eluted with Elute Buffer 2 (50 mM sodium phosphate pH 7.0, 10% glycerol, 1 M NaCl). Fractions were collected, protein was dialysed and stored in buffer containing 50 mM Tris-HCl pH 7.0, 25 mM NaCl, 1 mM EDTA, and 50% glycerol. Catalytic activities and protein concentrations were determined. Enzyme-containing fractions were pooled and aliquots were stored at −80 °C.
(§2) HIV RT-associated RNase H activity was measured as described[36] using the RNase H inhibitor RDS1759[11] as a control. In 100 µL reaction volume containing 50 mM Tris-HCl buffer pH 7.8, 6 mM MgCl2, 1 mM dithiothreitol (DTT), 80 mM KCl, 0.25 µM hybrid RNA/DNA 5′-GAUCUGAGCCUGGGAGCU-Fluorescin-3′ (HPLC, dry, QC: Mass Check) (available from Metabion) 5′-Dabcyl-AGCTCCCAGGCTCAGATC-3′ (HPLC, dry, QC: Mass Check), increasing concentrations of inhibitor, whose dilution were made in water, and 20 ng of wt RT according to a linear range of dose-response curve. The reaction mixture was incubated for 1 h at 37 °C, stopped by addition of EDTA and products were measured with a multilabel counter plate reader Victor 3 (Perkin Elmer model 1420–051) equipped with filters for 490/528 nm (excitation/emission wavelength).

HIV-1 integrase = system: HIV-1 integrase; design: method as in earlier work; details: cited from earlier work
[2] = target: T2, HIV-1 RT-associated RDDP function (Human immunodeficiency virus type 1 group M subtype B, UniProt P04585); experiment: HIV-1 RNA-dependent DNA polymerase (RDDP) activity determination; format: biochemical; details: for remaining activity at 100 µM: read-out: Percentage of residual enzyme activity (RDDP); for IC50: wt RT
T2 construct: The 1:1 ration between the p66/p51 subunits was also verified; His6; made in house; host or cells: E. coli strain M15
Procedure: as §1
RNA-dependent DNA polymerase (RDDP) activity was measured as described[37] using the NNRTI Efavirenz as a control. In 25 µL volume containing 60 mM Tris-HCl buffer pH 8.1, 8 mM MgCl2, 60 mM KCl, 13 mM DTT, 2.5 µM poly (A)- oligo (dT), 100 µM dTTP, increasing concentrations of inhibitor, whose dilution were made in water, and 6 ng of wt RT according to a linear range of dose-response curve. After enzyme addition, the reaction mixture was incubated for 30 min at 37 °C and the stopped by addition of EDTA. Reaction products were detected by picogreen addition and measured with a multilabel counter plate reader Victor 3 (Perkin Elmer model 1420–051) equipped with filters for 502/523 nm (excitation/emission wavelength).

[3] = system: HIV-1 RT A502F, RNase H function; experiment: RNase H inhibition on mutated RT A502F; format: biochemical; details: RNase H IC50 ratio mutant/wt
Procedure: (§5) HIV RT-associated RNase H activity was measured as described[36] using the RNase H inhibitor RDS1759[11] as a control. In 100 µL reaction volume containing 50 mM Tris-HCl buffer pH 7.8, 6 mM MgCl2, 1 mM dithiothreitol (DTT), 80 mM KCl, 0.25 µM hybrid RNA/DNA 5′-[sequence]-Fluorescin-3′ (HPLC, dry, QC: Mass Check) (available from Metabion) 5′-Dabcyl-[sequence]-3′ (HPLC, dry, QC: Mass Check), increasing concentrations of inhibitor, whose dilution were made in water, and 20 ng of wt RT according to a linear range of dose-response curve. The reaction mixture was incubated for 1 h at 37 °C, stopped by addition of EDTA and products were measured with a multilabel counter plate reader Victor 3 (Perkin Elmer model 1420–051) equipped with filters for 490/528 nm (excitation/emission wavelength).
(§6) The next mutation involved the residue A502 located in the alpha helix, close to the second identified allosteric binding pocket. […] A502 residue was replaced by a phenylalanine with the aim to provoke a shift of alpha helix that might reduce the space between the two subunits p51 and p66 and therefore hinder the entrance of the compound in the pocket.

[4] = target: T3, HIV-1 RT A502F, RNase H function (Human immunodeficiency virus type 1 group M subtype B, UniProt P04585, A1089F); experiment: RNase H inhibition on mutated RT A502F; format: biochemical
T3 construct: introduce amino acid substitutions into the p66 HIV-1 RT subunit coded in a p6HRT- prot plasmid; His6; made in house; host or cells: E. coli strain M15
Procedure: as §5, §6

[5] = target: T4, HIV-1 RT A508V, RNase H function (Human immunodeficiency virus type 1 group M subtype B, UniProt P04585, A1095V); experiment: RNase H inhibition on mutated RT A508V; format: biochemical
T4 construct: introduce amino acid substitutions into the p66 HIV-1 RT subunit coded in a p6HRT- prot plasmid; His6; made in house; host or cells: E. coli strain M15
Procedure: as §2
(§3) The QuikChange mutagenesis kit (Agilent Technologies Inc., Santa Clara, CA) was used to introduce amino acid substitutions into the p66 HIV-1 RT subunit coded in a p6HRT- prot plasmid by following the manufacturer’s instructions.
(§4) In order to verify this hypothesis, it was chosen to perform site-directed mutagenesis, determining the independent impact of several amino acid substitutions on the potency of the compound to inhibit the RNase H function. All the selected aminoacids are localised in the RNase H domain and are potentially crucial for the binding of RNase H function inhibitors. […]

[6] = target: HIV-1 RT L503F, RNase H function (Human immunodeficiency virus 1, UniProt P04585, L1090F); experiment: RNase H inhibition on mutated RT L503F; format: biochemical; details: row printed L503F
Procedure: as §2, §3, §4

[7] = target: T5, HIV-1 RT V108F, RNase H function (Human immunodeficiency virus type 1 group M subtype B, UniProt P04585, V695F); experiment: RNase H inhibition on mutated RT V108F; format: biochemical
T5 construct: introduce amino acid substitutions into the p66 HIV-1 RT subunit coded in a p6HRT- prot plasmid; His6; made in house; host or cells: E. coli strain M15
Procedure: as §2, §3, §4

[8] = system: HIV-1 RT R448A, RNase H function; experiment: RNase H inhibition on mutated RT R448A; format: biochemical; details: RNase H IC50 ratio mutant/wt
Procedure: as §2, §3, §4

[9] = target: T6, HIV-1 RT R448A, RNase H function (Human immunodeficiency virus type 1 group M subtype B, UniProt P04585, R1035A); experiment: RNase H inhibition on mutated RT R448A; format: biochemical
T6 construct: introduce amino acid substitutions into the p66 HIV-1 RT subunit coded in a p6HRT- prot plasmid; His6; made in house; host or cells: E. coli strain M15
Procedure: as §2, §3, §4

[10] = target: T7, HIV-1 RT R557A, RNase H function (Human immunodeficiency virus type 1 group M subtype B, UniProt P04585, R1144A); experiment: RNase H inhibition on mutated RT R557A; format: biochemical
T7 construct: introduce amino acid substitutions into the p66 HIV-1 RT subunit coded in a p6HRT- prot plasmid; His6; made in house; host or cells: E. coli strain M15
Procedure: as §2, §3, §4

[11] = system: HIV-1 RT R557A, RNase H function; experiment: RNase H inhibition on mutated RT R557A; format: biochemical; details: RNase H IC50 ratio mutant/wt
Procedure: as §2, §3, §4

[12] = in the presence of 100 µM of the compound

| SMILES | remaining activity at 100 µM [1] [%] | IC50 ([1]; wt RT) [µM] | folds less active on RNase H than flavuglaucin B (7) ([1]; wt RT) | remaining activity at 100 µM [2, 12] [%] | IC50 [2] [µM] | further results |
| --- | --- | --- | --- | --- | --- | --- |
| COc1ccc(-c2cc(=O)c3c(O)c(OC)c(OC)cc3o2)cc1 [Compound 1, salvigenin] | 80 | > 100 |  |  |  |  |
| COc1cc2oc(-c3ccc(O)cc3)cc(=O)c2c(O)c1OC [Compound 2, cirsimaritin] |  | 89 ± 7 |  |  |  | decrease in RNase H inhibitory activity relative to cirsiliol (3) ([1]; wt RT): 10 folds |
| COc1cc2oc(-c3ccc(O)c(O)c3)cc(=O)c2c(O)c1OC [Compound 3, cirsiliol] |  | 8.2 ± 0.6 |  |  |  | concentration inhibiting HIV-1 integrase (HIV-1 integrase): 12 µM |
| CC(=O)OCC12C(O)CC(C)C3(CC(c4ccoc4)OC3=O)C1CCC(=O)C21CO1 (stereo not shown) [Compound 4, teuflavin] | 80 | > 100 |  |  |  |  |
| CC(=O)OCC1=C2C(COC3OC(CO)C(O)C(O)C3OC(C)=O)CC(C)C3(CC(c4ccoc4)OC3=O)C2CCC1 (stereo not shown) [Compound 5, teuflavoside] | 74 | > 100 |  |  |  |  |
| CC(=O)OCC1=CCCC2C1=CCC(C)C21CC(c2ccoc2)OC1=O (stereo not shown) [Compound 6, Flavuglaucin A] |  | 20.2 ± 2 | about two | 80 | > 100 |  |
| CC1CC=C2C(CO)=CCCC2C12CC(c1ccoc1)OC2=O (stereo not shown) [Compound 7, Flavuglaucin B] |  | 9.1 ± 0.2 |  |  | > 100 | Percentage of residual enzyme activity (RDDP) [2, 12]: 80%; loss in potency, A502F vs wild type [3]: 3.5 fold; IC50 [4]: 32.8 µM; IC50 [5]: > 100 µM; IC50 [6]: 27.3 µM; change of RNase H IC50 against V108F compared with the wild type enzyme [7]: slight increase in IC50; loss in potency, R448A vs wild type [8]: 5.5 fold; IC50 [9]: 49.7 µM; IC50 [10]: 59.2 µM; loss in potency, R557A vs wild type [11]: 6.5 fold |
| CC1=C2CCC(C)C3(CC(c4ccoc4)OC3=O)C2CCC1=O (stereo not shown) [Compound 8, Flavuglaucin C] |  | 52.4 ± 0.4 | about six | 80 | > 100 |  |
| CC1CCC2=C(C=O)CCCC2C12CC(c1ccoc1)OC2=O (stereo not shown) [Compound 9] |  | 36.4 ± 0.4 | four | 80 | > 100 |  |
